The record followed here is PMC6017357, “In Vitro Inhibitory Effects of Synthetic Cannabinoid EAM-2201 on Cytochrome P450 and UDP-Glucuronosyltransferase Enzyme Activities in Human Liver Microsomes” (Molecules : A Journal of Synthetic Chemistry and Natural …, 2018).

One data set concerns the target T1, CYP2D6 (Homo sapiens, UniProt P10635).
T1 construct: from tissue; host or cells: ultrapooled human liver microsomes
Put plainly: CYP2D6-mediated bufuralol 1′-hydroxylation in pooled human liver microsomes. The data set is classed as in vitro ADME. The conditions noted are these: up to 50 µM, without 30-min preincubation. As for the experimental part:
The inhibitory potential (IC50 values) of EAM-2201 on CYP1A2, CYP2A6, CYP2C8, CYP2C9, CYP2C19, CYP2D6 and CYP3A4 were evaluated using ultrapooled human liver microsomes and a cocktail of seven CYP substrates followed by LC-tandem mass spectrometry (LC-MS/MS) as previously described. […] Aliquots (5 µL) of the diluted supernatants were analyzed using LC-MS/MS. […]
The metabolites formed from CYP substrates were simultaneously quantified using our previously described LC-MS/MS method. […] Quantification was performed by selected reaction monitoring (SRM) of the [M + H]^+ ion and the related product ion for each metabolite: acetaminophen, 152.1 > 110.3; N-desethylamodiaquine, 328.1 > 283.0; 7-hydroxycoumarin, 163.0 > 107.2; 4-hydroxybupropion, 256.1 > 238.0; 4′-hydroxydiclofenac, 312.0 > 231.1; 4′-hydroxy-mephenytoin, 235.1 > 150.1; 1′-hydroxybufuralol, 278.1 > 186.1; 1′-hydroxymidazolam, 341.9 > 324.0; ^13C2,^15N-acetaminophen, 155.1 > 111.2; and d9-1′-hydroxybufuralol, 287.2 > 187.0. […]

In a further data set the target is CYP2C19 (Homo sapiens, UniProt P33261). Put plainly: CYP2C19-mediated [S]-mephenytoin 4′-hydroxylation in human liver microsomes (IC50 and time-dependent inhibition). Also on record: from tissue; host or cells: ultrapooled human liver microsomes. The data set is classed as in vitro ADME. As for the experimental part: The inhibitory potential (IC50 values) of EAM-2201 on CYP1A2, CYP2A6, CYP2C8, CYP2C9, CYP2C19, CYP2D6 and CYP3A4 were evaluated using ultrapooled human liver microsomes and a cocktail of seven CYP substrates followed by LC-tandem mass spectrometry (LC-MS/MS) as previously described. Each incubation mixture was prepared in a total volume of 100 µL as follows: pooled human liver microsomes (5.2 pmol CYP), 1.0 mM NADPH, 10 mM magnesium chloride, 50 mM potassium phosphate buffer (pH 7.4), various concentrations of EAM-2201 in DMSO (final concentrations of 0.1–50 µM, 0.5% DMSO) and a cocktail of seven CYP probe substrates in 50% acetonitrile (0.5% acetonitrile), including 50 µM phenacetin, 2.5 µM coumarin, 2.0 µM amodiaquine, 10 µM diclofenac, 100 µM [S]-mephenytoin, 5 µM bufuralol and 2.5 µM midazolam in 50% acetonitrile. After a 3-min preincubation at 37 °C, the reactions were initiated by adding NADPH and incubation proceeded for 15 min at 37 °C in a shaking water bath. The reactions were stopped by adding 100 µL of ice-cold methanol containing internal standards (^13C2,^15N-acetaminophen for acetaminophen and N-desethylamodiaquine; d9-1′-hydroxybufuralol for 4′-hydroxydiclofenac, 7-hydroxycoumarin, 4′-hydroxymephenytoin, 1′-hydroxybufuralol and 1′-hydroxy-midazolam). The incubation mixtures were centrifuged at 13,000× g for 4 min at 4 °C and 50 µL of each supernatant was diluted in 50 µL of water. Aliquots (5 µL) of the diluted supernatants were analyzed using LC-MS/MS. All assays were performed in triplicate and the mean values were used in calculations. […] Each reaction was initiated by adding the seven-CYP probe substrate cocktail described above.
The time-dependent inhibitory effects of EAM-2201 on CYP2C8, CYP2C9, CYP2C19 and CYP3A4 activities in ultrapooled human liver microsomes were evaluated using time- and concentration-dependent inhibition assays. Ultrapooled human liver microsomes (26.0 pmol CYP) were pre-incubated with various concentrations of EAM-2201 in DMSO (0.5% DMSO) in 50 mM potassium phosphate buffer (pH 7.4) in the presence of NADPH for predetermined time periods: 5–15 min for CYP2C8 activity, 5–20 min for CYP2C9 activity and 15–40 min for CYP2C19 and CYP3A4 activities. […] Aliquots (5 µL) of the diluted supernatants were analyzed using LC-MS/MS.
The metabolites formed from CYP substrates were simultaneously quantified using our previously described LC-MS/MS method. […]
Background: Microsomes from liver hold many membrane-bound enzymes, among them those of drug oxidation.

Chain of CYP2C19 (P33261 whole entry): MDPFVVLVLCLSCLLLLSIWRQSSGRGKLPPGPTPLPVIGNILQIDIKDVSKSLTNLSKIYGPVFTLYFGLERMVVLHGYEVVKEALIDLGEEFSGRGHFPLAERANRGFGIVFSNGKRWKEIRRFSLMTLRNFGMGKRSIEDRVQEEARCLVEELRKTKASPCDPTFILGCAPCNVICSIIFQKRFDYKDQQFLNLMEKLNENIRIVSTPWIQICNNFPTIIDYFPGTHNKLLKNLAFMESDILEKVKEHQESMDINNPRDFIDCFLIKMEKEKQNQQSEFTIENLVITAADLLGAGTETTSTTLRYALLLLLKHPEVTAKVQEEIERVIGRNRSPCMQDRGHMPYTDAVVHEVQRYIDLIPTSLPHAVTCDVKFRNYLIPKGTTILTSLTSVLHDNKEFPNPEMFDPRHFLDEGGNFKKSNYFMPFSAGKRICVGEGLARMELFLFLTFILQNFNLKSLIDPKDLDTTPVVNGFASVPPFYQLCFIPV
T1 sequence (P10635 whole entry): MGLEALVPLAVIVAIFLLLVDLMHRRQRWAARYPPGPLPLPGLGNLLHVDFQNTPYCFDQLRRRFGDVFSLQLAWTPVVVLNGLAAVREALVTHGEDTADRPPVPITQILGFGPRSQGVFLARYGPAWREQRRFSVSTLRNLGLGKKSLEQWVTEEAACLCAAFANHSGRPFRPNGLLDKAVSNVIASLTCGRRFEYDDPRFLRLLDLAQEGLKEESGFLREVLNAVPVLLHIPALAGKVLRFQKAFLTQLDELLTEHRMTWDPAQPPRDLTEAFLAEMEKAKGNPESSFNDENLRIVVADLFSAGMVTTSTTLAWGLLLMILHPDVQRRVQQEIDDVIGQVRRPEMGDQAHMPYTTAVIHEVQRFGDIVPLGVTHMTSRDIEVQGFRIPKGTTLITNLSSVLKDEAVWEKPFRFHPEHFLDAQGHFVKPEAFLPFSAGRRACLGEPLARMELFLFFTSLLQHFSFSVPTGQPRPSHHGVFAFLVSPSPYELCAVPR

Broadly, the IC50 is the midpoint of a concentration-inhibition curve. High values mean weaker potency in that assay, low ones greater potency in that assay. As usually defined, the kinact is the maximal first-order rate at which the target is inactivated. Consider `CCc1ccc(C(=O)c2cn(CCCCCF)c3ccccc23)c2ccccc12` [EAM-2201, (4-ethyl-1-naphthalenyl)[1-(5-fluoropentyl)-1H-indol-3-yl]-methanone], for which, on CYP2D6, the “inhibition of CYP2D6-mediated bufuralol 1′-hydroxylation” value is reported as “negligibly inhibited”. On CYP2C19, this compound displayed an IC50 of 10.9 µM. In addition, at CYP2C19 (human liver microsomes), the “inactivation efficiency (kinact/Ki), CYP2C19” value worked out at 115 M⁻¹ s⁻¹. Also, the kinact at CYP2C19 (human, ultrapooled human liver microsomes, pH 7.4, probe [S]-mephenytoin (100 µM), 4′-hydroxylation, read-out: kinact, time-dependent inhibition of CYP2C19 [S]-mephenytoin 4′-hydroxylase (converted)) was 0.00044 s⁻¹. Further, the “inhibition of CYP2C19-mediated [S]-mephenytoin 4′-hydroxylation” value at CYP2C19 (up to 50 µM, without 30-min preincubation, human liver microsomes) is “negligibly inhibited”.
